According to ChEMBL document CHEMBL2069214, “Discovery of triazolopyrimidine-based PDE8B inhibitors: exceptionally ligand-efficient and lipophilic ligand-efficient compounds for the treatment of diabetes” (Bioorg Med Chem Lett, 2012):
Values after ≈ are worked out from the molar mass of the structure shown. Each block holds one molecule with its values, some of them ahead of it. Active and inactive are the calls of the source. The calls are words filed in the database; no cut-off is given here.

Tests used:
[1] = Intrinsic clearance in human liver microsomes; format: ADME, Microsome; details: read-out: CLH
[2] = Clearance in iv dosed rat; format: ADME, organism-based; details: in vivo
[3] = (§1) Intrinsic clearance in rat liver microsomes; format: ADME, Microsome; details: liver microsomes, read-out: CLH
[4] = Clearance in iv dosed dog; format: ADME, organism-based, Canis lupus familiaris; details: in vivo
[5] = Genotoxicity in micronucleus
Salmonella typhimurium = assay: Genotoxicity in Salmonella typhimurium; format: toxicity, organism-based; details: salmonella enterica subsp. enterica serovar typhimurium
[6] = Oral bioavailability in rat; format: ADME, organism-based; details: in vivo
[7] = target: 3',5'-cyclic-AMP phosphodiesterase 4D (Homo sapiens) (UniProt Q08499); assay: Inhibition of PDE4D at 1 uM
3',5'-cyclic-AMP phosphodiesterase 4D (Homo sapiens), sequence (Q08499 whole entry): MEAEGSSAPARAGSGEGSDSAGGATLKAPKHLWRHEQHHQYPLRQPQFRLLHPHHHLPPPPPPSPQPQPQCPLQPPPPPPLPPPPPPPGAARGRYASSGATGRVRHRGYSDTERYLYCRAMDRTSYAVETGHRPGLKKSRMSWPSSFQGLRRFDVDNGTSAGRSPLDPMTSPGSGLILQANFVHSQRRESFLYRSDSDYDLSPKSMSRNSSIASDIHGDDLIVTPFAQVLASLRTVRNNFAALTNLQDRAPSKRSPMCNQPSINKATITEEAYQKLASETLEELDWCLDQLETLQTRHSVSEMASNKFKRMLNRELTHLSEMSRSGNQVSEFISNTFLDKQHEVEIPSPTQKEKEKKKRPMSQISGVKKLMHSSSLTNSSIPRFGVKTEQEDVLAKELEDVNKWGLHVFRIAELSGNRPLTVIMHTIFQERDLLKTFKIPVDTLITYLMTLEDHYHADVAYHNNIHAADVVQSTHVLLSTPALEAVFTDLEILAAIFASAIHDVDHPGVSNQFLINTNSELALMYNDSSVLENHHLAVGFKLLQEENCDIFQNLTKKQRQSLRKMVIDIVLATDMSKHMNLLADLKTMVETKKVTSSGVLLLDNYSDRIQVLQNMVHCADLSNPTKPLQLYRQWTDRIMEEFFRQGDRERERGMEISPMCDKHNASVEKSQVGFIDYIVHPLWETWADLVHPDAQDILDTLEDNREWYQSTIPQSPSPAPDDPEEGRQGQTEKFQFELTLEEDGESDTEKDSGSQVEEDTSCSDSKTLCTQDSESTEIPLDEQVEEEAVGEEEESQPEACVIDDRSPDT

[8] = target: 3',5'-cyclic-AMP phosphodiesterase 4C (Homo sapiens) (UniProt Q08493); assay: Inhibition of PDE4C at 1 uM
3',5'-cyclic-AMP phosphodiesterase 4C (Homo sapiens), sequence (Q08493 whole entry): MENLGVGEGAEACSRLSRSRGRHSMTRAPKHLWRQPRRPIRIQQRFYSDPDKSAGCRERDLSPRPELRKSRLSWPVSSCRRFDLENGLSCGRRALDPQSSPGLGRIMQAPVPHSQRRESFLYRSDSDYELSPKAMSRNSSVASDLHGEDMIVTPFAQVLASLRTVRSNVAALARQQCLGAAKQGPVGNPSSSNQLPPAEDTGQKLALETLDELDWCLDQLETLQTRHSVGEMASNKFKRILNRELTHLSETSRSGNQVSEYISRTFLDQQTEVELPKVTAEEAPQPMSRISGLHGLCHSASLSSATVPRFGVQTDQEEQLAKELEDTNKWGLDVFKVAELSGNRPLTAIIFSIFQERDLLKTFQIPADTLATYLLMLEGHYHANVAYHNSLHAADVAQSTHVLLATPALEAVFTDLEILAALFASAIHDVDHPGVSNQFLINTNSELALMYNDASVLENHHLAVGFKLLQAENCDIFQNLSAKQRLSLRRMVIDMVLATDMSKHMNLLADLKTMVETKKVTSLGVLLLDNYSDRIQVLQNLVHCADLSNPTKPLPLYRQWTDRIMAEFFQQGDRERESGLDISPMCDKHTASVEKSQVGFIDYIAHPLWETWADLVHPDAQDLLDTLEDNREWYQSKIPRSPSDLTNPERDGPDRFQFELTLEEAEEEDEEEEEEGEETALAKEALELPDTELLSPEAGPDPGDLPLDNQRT

[9] = target: High affinity cAMP-specific and IBMX-insensitive 3',5'-cyclic phosphodiesterase 8B (Homo sapiens, UniProt O95263); assay: Inhibition of PDE8B expressed in Sf9 insect cells
High affinity cAMP-specific and IBMX-insensitive 3',5'-cyclic phosphodiesterase 8B, sequence (O95263 whole entry): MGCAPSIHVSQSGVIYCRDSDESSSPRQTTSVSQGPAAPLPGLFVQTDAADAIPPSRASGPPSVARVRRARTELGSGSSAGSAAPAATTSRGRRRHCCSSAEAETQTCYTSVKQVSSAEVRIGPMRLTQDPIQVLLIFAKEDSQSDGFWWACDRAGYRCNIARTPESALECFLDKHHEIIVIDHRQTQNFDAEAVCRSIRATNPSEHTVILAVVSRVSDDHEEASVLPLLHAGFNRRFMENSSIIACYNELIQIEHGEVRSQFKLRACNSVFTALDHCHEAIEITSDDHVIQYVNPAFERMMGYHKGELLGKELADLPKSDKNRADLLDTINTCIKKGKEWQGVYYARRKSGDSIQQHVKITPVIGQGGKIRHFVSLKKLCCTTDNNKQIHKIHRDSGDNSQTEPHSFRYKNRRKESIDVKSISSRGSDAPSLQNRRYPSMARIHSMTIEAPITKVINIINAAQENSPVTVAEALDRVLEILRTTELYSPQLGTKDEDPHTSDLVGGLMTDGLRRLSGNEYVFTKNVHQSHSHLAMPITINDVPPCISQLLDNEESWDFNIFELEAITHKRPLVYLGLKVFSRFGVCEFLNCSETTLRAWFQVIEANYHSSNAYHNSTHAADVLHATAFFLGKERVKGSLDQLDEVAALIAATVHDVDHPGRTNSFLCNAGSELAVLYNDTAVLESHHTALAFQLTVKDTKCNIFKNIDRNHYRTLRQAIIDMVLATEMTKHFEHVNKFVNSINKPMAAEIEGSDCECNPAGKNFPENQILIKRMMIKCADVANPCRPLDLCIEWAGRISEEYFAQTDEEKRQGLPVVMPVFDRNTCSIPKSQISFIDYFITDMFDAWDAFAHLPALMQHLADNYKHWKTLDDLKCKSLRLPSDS

[10] = Volume of distribution at steady state in iv dosed dog; format: ADME, organism-based, Canis lupus familiaris; details: in vivo, read-out: Vdss
[11] = Volume of distribution at steady state in iv dosed rat; format: ADME, organism-based; details: in vivo, read-out: Vdss
[12] = Oral bioavailability in dog; format: ADME, organism-based, Canis lupus familiaris; details: in vivo
Liver microsomes = assay: as §1; format: ADME, Microsome; details: microsomes
[13] = Solubility of the compound; format: physicochemical
Canis familiaris [14] = species on record: Canis familiaris; assay: Cardiotoxicity in dog assessed as increase in heart rate at > 10 times IC50; format: toxicity, organism-based, Canis lupus familiaris; details: in vivo
[15] = Dissociation constant, pKa of the compound; format: physicochemical
[16] = Solubility of the compound at pH 7.4; format: physicochemical; details: buffer
[17] = Solubility of the compound at pH 4; format: physicochemical; details: buffer
[18] = target: High affinity cAMP-specific and IBMX-insensitive 3',5'-cyclic phosphodiesterase 8A (Homo sapiens, UniProt O60658); assay: Inhibition of PDE8A
High affinity cAMP-specific and IBMX-insensitive 3',5'-cyclic phosphodiesterase 8A, sequence (O60658 whole entry): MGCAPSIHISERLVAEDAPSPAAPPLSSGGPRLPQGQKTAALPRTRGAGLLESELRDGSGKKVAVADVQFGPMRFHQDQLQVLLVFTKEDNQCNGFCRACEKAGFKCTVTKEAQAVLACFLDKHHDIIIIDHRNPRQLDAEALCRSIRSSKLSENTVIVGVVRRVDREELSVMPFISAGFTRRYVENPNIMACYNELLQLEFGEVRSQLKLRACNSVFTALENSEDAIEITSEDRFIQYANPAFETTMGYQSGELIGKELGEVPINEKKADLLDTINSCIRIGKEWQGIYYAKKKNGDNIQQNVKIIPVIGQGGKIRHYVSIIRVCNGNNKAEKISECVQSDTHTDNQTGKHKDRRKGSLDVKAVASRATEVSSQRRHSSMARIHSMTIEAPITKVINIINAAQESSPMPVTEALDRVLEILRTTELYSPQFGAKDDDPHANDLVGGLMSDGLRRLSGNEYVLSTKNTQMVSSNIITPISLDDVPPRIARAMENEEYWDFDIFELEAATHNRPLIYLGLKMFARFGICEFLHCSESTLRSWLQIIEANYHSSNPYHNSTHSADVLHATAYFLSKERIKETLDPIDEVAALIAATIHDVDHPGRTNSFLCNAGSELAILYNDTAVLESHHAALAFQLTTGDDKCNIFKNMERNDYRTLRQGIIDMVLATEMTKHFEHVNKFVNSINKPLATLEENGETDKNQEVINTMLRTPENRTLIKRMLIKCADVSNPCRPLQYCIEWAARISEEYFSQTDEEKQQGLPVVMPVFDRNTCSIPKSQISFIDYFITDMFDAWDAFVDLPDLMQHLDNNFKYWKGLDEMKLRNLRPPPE

Homo sapiens [19] = species on record: Homo sapiens; assay: Inhibition of PDE
[20] = target: Kappa-type opioid receptor (Homo sapiens) (UniProt P41145); assay: Inhibition of kappa opioid receptor
Kappa-type opioid receptor (Homo sapiens), sequence (P41145 whole entry): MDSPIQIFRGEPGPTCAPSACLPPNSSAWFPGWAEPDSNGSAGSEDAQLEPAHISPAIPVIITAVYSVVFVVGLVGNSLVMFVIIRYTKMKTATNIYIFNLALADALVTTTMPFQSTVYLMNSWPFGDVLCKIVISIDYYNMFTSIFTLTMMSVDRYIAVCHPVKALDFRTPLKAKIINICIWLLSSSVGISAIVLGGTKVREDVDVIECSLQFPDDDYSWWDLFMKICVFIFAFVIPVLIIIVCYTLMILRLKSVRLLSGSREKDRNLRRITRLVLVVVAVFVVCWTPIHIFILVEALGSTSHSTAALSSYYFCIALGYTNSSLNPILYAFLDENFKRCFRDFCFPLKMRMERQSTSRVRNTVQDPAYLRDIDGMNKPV

[21] = target: Voltage-gated inwardly rectifying potassium channel KCNH2 (Homo sapiens, UniProt Q12809); assay: Inhibition of human ERG
Voltage-gated inwardly rectifying potassium channel KCNH2, sequence (Q12809 whole entry): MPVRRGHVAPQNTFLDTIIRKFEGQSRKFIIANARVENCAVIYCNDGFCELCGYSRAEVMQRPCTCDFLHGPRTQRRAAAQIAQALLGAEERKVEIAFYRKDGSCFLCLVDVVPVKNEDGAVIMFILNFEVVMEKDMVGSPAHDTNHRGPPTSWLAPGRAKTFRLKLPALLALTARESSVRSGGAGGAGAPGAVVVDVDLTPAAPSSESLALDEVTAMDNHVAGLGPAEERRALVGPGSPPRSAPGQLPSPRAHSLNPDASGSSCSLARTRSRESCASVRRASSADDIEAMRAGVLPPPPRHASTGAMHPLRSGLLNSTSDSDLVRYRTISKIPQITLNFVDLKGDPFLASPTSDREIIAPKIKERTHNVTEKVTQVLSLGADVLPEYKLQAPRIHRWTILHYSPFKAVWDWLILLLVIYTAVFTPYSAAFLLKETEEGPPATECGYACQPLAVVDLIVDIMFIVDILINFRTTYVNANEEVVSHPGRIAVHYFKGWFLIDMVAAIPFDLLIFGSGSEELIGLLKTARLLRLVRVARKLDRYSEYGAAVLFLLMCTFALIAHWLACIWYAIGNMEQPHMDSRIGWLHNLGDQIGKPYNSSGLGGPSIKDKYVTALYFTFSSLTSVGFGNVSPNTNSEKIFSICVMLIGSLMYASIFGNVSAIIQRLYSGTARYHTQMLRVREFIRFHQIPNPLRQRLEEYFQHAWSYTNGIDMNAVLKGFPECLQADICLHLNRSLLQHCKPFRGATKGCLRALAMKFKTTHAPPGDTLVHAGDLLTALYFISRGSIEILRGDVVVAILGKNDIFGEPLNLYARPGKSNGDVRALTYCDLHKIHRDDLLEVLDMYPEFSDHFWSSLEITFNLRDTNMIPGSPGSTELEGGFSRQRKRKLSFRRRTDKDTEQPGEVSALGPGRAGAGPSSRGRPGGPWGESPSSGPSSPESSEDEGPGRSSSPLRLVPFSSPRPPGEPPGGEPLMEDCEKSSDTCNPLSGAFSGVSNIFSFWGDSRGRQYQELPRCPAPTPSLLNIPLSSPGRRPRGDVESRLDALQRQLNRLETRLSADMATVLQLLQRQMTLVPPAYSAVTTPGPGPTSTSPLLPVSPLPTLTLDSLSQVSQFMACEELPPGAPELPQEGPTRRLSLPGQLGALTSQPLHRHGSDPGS

[22] = Efflux ratio of permeability of the compound across MDCK cells; format: ADME, cell-based, Canis lupus familiaris; details: dog
[23] = Fraction unbound in rat plasma; format: ADME, cell-free
[24] = Fraction unbound in dog plasma; format: ADME, cell-free, Canis lupus familiaris
[25] = Fraction unbound in human plasma; format: ADME, cell-free
Homo sapiens [26] = species on record: Homo sapiens; assay: Selectivity ratio for PDE to PDE8B
Pancreatic islet = assay: Induction of insulin secretion in human pancreatic islet cells at 0.001 to 100 uM in presence of glucose; format: functional
Canis familiaris [27] = species on record: Canis familiaris; assay: Cardiotoxicity in dog assessed as increase in blood pressure at > 10 times IC50; format: toxicity, organism-based, Canis lupus familiaris

SMILES: Nc1ncnc2c1nnn2CC1CCCCO1 (centres undefined)
microsomal CLint [1]: < 7.2 µL/min/mg

SMILES: Nc1nc(C2CC2)nc2c1nnn2C[C@H]1CN(Cc2nccs2)CCO1
clearance [2]: 72 mL/min/kg
microsomal CLint [3]: 50 µL/min/mg
microsomal CLint [1]: 20 µL/min/mg
bioavailability [6]: 20%
Activity [5]: Non-toxic
Activity (Salmonella typhimurium): Non-toxic

SMILES: Nc1nc(C2CC2)nc2c1ncn2C[C@H]1CCCO1
IC50 [9]: > 2000 nM

SMILES: Cc1nc(N)c2nnn(C[C@H]3CN(Cc4cc(F)cc(F)c4)CCO3)c2n1
clearance [2]: 28 mL/min/kg
microsomal CLint [3]: 80 µL/min/mg
microsomal CLint [1]: 36 µL/min/mg
bioavailability [6]: 12%
clearance [4]: 4.8 mL/min/kg
Activity [5]: Non-toxic
Activity (Salmonella typhimurium): Non-toxic

SMILES: Nc1nc(C2CC2)nc2c1nnn2CC1CCCOC1 (centres undefined)
microsomal CLint [3]: 35 µL/min/mg
microsomal CLint [1]: < 7.2 µL/min/mg

SMILES: Nc1nc(C(F)(F)F)nc2c1nnn2C[C@H]1CN(Cc2ccccn2)CCO1
clearance [2]: 121 mL/min/kg
microsomal CLint [3]: 36 µL/min/mg
microsomal CLint [1]: 36 µL/min/mg
clearance [4]: 8.5 mL/min/kg
Activity [5]: Non-toxic
Activity (Salmonella typhimurium): Non-toxic

SMILES: Nc1nc(C2CC2)nc2c1nnn2CC1CCCCO1 (centres undefined)
microsomal CLint (Liver microsomes): 93 µL/min/mg
microsomal CLint [1]: < 7.2 µL/min/mg

SMILES: Nc1nc(C2CC2)nc2c1nnn2CC1CN(Cc2ccccc2)CCO1 (centres undefined)
solubility [13]: soluble

SMILES: Nc1nc(C2CC2)nc2c1nnn2Cc1ccc(Cl)cc1
microsomal CLint [1]: < 7.2 µL/min/mg

SMILES: COCc1nc(N)c2nnn(CC3CCCCO3)c2n1 (centres undefined)
microsomal CLint [1]: < 7.2 µL/min/mg

SMILES: Nc1nc(C2CC2)nc2c1nnn2C[C@H]1CCCO1
microsomal CLint [3]: < 28 µL/min/mg
microsomal CLint [1]: 11.9 µL/min/mg

SMILES: Nc1nc(C2CC2)nc2c1nnn2Cc1cc(C2CC2)n[nH]1
microsomal CLint [1]: < 7.2 µL/min/mg

Continued, in another order:

clearance [2]: 124 mL/min/kg
microsomal CLint [3]: 75 µL/min/mg
microsomal CLint [1]: 16 µL/min/mg
clearance [4]: 7 mL/min/kg
SMILES: Nc1nc(C2CC2)nc2c1nnn2C[C@H]1CN(Cc2ncccn2)CCO1
Activity [5]: Non-toxic
Activity (Salmonella typhimurium): Non-toxic

microsomal CLint [1]: < 7.2 µL/min/mg
SMILES: CC(C)n1cc(Cn2nnc3c(N)nc(C4CC4)nc32)cn1

microsomal CLint [3]: 625 µL/min/mg
microsomal CLint [1]: 303 µL/min/mg
SMILES: Cc1ccnc(N2CCCC(Cn3nnc4c(N)nc(C5CC5)nc43)C2)n1 (centres undefined)

inhibition [7]: 52%
microsomal CLint [3]: 230 µL/min/mg
inhibition [8]: 62%
IC50 [9]: 206 nM
microsomal CLint [1]: 30 µL/min/mg
SMILES: Nc1nc(C2CC2)nc2c1nnn2C[C@@H]1CCN(Cc2nccs2)C1

microsomal CLint [3]: 244 µL/min/mg
microsomal CLint [1]: 52 µL/min/mg
SMILES: CCc1cnc(N2CC[C@@H](Cn3nnc4c(N)nc(C5CC5)nc43)C2)nc1

IC50 [9]: > 420 nM
SMILES: FC(F)(F)c1nc(NCc2cccnc2)c2nnn(CC3CCCCO3)c2n1 (centres undefined)

Vd [10]: 0.9 L/kg
Vd [11]: 5.5 L/kg
clearance [2]: 29 mL/min/kg
microsomal CLint [3]: < 14 µL/min/mg
microsomal CLint [1]: 24.6 µL/min/mg
bioavailability [6]: < 5%
clearance [4]: 11 mL/min/kg
bioavailability [12]: < 5%
SMILES: CCc1nc(Cn2nnc3c(N)nc(C4CC4)nc32)cs1

inhibition [7]: 64%
inhibition [8]: 60%
IC50 [9]: 3620 nM
microsomal CLint [1]: 150 µL/min/mg
SMILES: Nc1nc(C2CC2)nc2c1nnn2CC1CCCN(Cc2ccccc2)C1 (centres undefined)

microsomal CLint [1]: 17 µL/min/mg
SMILES: Nc1nc(-c2ccccc2)nc2c1nnn2CC1CCCCO1 (centres undefined)

Vd [10]: 1.4 L/kg
Vd [11]: 1.7 L/kg
clearance [2]: 61 mL/min/kg
bioavailability [6]: 17%
clearance [4]: 22 mL/min/kg
bioavailability [12]: 13%
SMILES: Nc1nc(C(F)(F)F)nc2c1nnn2C[C@H]1CCCO1

clearance [2]: 24 mL/min/kg
microsomal CLint [3]: 22 µL/min/mg
microsomal CLint [1]: 15 µL/min/mg
bioavailability [6]: 45%
clearance [4]: 5.6 mL/min/kg
SMILES: CCc1csc(CN2CCO[C@@H](Cn3nnc4c(N)nc(C)nc43)C2)n1
Activity [5]: Non-toxic
Activity (Salmonella typhimurium): Non-toxic

clearance [2]: 23 mL/min/kg
microsomal CLint [3]: < 14 µL/min/mg
IC50 [9]: 1.3 nM
microsomal CLint [1]: < 8 µL/min/mg
bioavailability [6]: 63%
clearance [4]: 3.5 mL/min/kg
bioavailability [12]: 100%
pKa [15]: 4.9
solubility [16]: 150 µg/mL (≈ 0.433 mM)
solubility [17]: 2900 µg/mL (≈ 8.37 mM)
IC50 [18]: 1.9 nM
INH (Homo sapiens [19]): > 10 µM
INH [20]: 1.3 µM
efflux ratio [22]: 3.5
fraction unbound [23]: 0.88
fraction unbound [24]: 0.78
fraction unbound [25]: 0.46
Selectivity ratio (Homo sapiens [26]): > 1000
SMILES: Cc1nc(N)c2nnn(C[C@H]3CN(Cc4nccs4)CCO3)c2n1
Activity (Canis familiaris [14]): Toxic
Activity [5]: Non-toxic
Activity (Salmonella typhimurium): Non-toxic
IC50 [21]: > 100000 nM
Activity (Pancreatic islet): Active
Activity (Canis familiaris [27]): Toxic

microsomal CLint [1]: 100 µL/min/mg
SMILES: Nc1nc(C2CCCCC2)nc2c1nnn2CC1CCCCO1 (centres undefined)
